Data reported in patent US9394446B2, “Method for recovering Ru complex dye from used dye solution” (Tanaka Kikinzoku Kogyo K.K., priority 2012, dated 2016).

Test: Preliminary test: dissolving property of dye solution components in ether-based solvents, alkane-based solvents and water
Details: for dissolving property in Dibutyl ether: 1 mg (solvents: 1 mL) in 1 mL dibutyl ether; for dissolving property in Dibutyl ether / dissolving property in Diethyl ether / dissolving property in Diisopropyl ether / dissolving property in Heptane / dissolving property in Hexane / dissolving property in Isoamyl ether / dissolving property in Methyl propyl ether / dissolving property in Octane / dissolving property in Pentane / dissolving property in t-Butyl methyl ether / dissolving property in Water: 25° C.; for dissolving property in Diethyl ether: 1 mg (solvents: 1 mL) in 1 mL diethyl ether; for dissolving property in Diisopropyl ether: 1 mg (solvents: 1 mL) in 1 mL diisopropyl ether; for dissolving property in Heptane: 1 mg (solvents: 1 mL) in 1 mL heptane; for dissolving property in Hexane: 1 mg (solvents: 1 mL) in 1 mL hexane; for dissolving property in Isoamyl ether: 1 mg (solvents: 1 mL) in 1 mL isoamyl ether; for dissolving property in Methyl propyl ether: 1 mg (solvents: 1 mL) in 1 mL methyl propyl ether; for dissolving property in Octane: 1 mg (solvents: 1 mL) in 1 mL octane; for dissolving property in Pentane: 1 mg (solvents: 1 mL) in 1 mL pentane; for dissolving property in t-Butyl methyl ether: 1 mg (solvents: 1 mL) in 1 mL t-butyl methyl ether; for dissolving property in Water: 1 mg (solvents: 1 mL) in 1 mL water, for comparison

Question: What does the source list for CC#N [Acetonitrile, acetonitrile]?
Answer: dissolving property in Dibutyl ether: ⊙ (those dissolved at 5 g/L or more and those fully miscible with a solvent for dye solution were labeled as “⊙” with excellent dissolving property); dissolving property in Diethyl ether: ⊙ (those dissolved at 5 g/L or more and those fully miscible with a solvent for dye solution were labeled as “⊙” with excellent dissolving property); dissolving property in Diisopropyl ether: ⊙ (those dissolved at 5 g/L or more and those fully miscible with a solvent for dye solution were labeled as “⊙” with excellent dissolving property); dissolving property in Heptane: ⊙ (those dissolved at 5 g/L or more and those fully miscible with a solvent for dye solution were labeled as “⊙” with excellent dissolving property); dissolving property in Hexane: ⊙ (those dissolved at 5 g/L or more and those fully miscible with a solvent for dye solution were labeled as “⊙” with excellent dissolving property); dissolving property in Isoamyl ether: ⊙ (those dissolved at 5 g/L or more and those fully miscible with a solvent for dye solution were labeled as “⊙” with excellent dissolving property); dissolving property in Methyl propyl ether: ⊙ (those dissolved at 5 g/L or more and those fully miscible with a solvent for dye solution were labeled as “⊙” with excellent dissolving property); dissolving property in Octane: ⊙ (those dissolved at 5 g/L or more and those fully miscible with a solvent for dye solution were labeled as “⊙” with excellent dissolving property); dissolving property in Pentane: ⊙ (those dissolved at 5 g/L or more and those fully miscible with a solvent for dye solution were labeled as “⊙” with excellent dissolving property); dissolving property in t-Butyl methyl ether: ⊙ (those dissolved at 5 g/L or more and those fully miscible with a solvent for dye solution were labeled as “⊙” with excellent dissolving property); dissolving property in Water: ⊙ (those dissolved at 5 g/L or more and those fully miscible with a solvent for dye solution were labeled as “⊙” with excellent dissolving property)

Question: What does the source list for C[C@H](CCC(=O)O)[C@H]1CC[C@H]2[C@@H]3[C@H](O)C[C@@H]4C[C@H](O)CC[C@]4(C)[C@H]3CC[C@]12C [CDCA, chenodeoxychloic acid]?
Answer: dissolving property in Dibutyl ether: ◯ (those having solubility of 0.05 g/L or more but less than 5 g/L and those miscible with a solvent for dye solution were labeled as “∘” with good dissolving property); dissolving property in Diethyl ether: ⊙ (those dissolved at 5 g/L or more and those fully miscible with a solvent for dye solution were labeled as “⊙” with excellent dissolving property); dissolving property in Diisopropyl ether: ⊙ (those dissolved at 5 g/L or more and those fully miscible with a solvent for dye solution were labeled as “⊙” with excellent dissolving property); dissolving property in Heptane: ◯ (those having solubility of 0.05 g/L or more but less than 5 g/L and those miscible with a solvent for dye solution were labeled as “∘” with good dissolving property); dissolving property in Hexane: ◯ (those having solubility of 0.05 g/L or more but less than 5 g/L and those miscible with a solvent for dye solution were labeled as “∘” with good dissolving property); dissolving property in Isoamyl ether: Δ (those having the solubility of less than 0.05 g/L were labeled as “Δ” with fair dissolving property); dissolving property in Methyl propyl ether: ⊙ (those dissolved at 5 g/L or more and those fully miscible with a solvent for dye solution were labeled as “⊙” with excellent dissolving property); dissolving property in Octane: Δ (those having the solubility of less than 0.05 g/L were labeled as “Δ” with fair dissolving property); dissolving property in Pentane: ◯ (those having solubility of 0.05 g/L or more but less than 5 g/L and those miscible with a solvent for dye solution were labeled as “∘” with good dissolving property); dissolving property in t-Butyl methyl ether: ⊙ (those dissolved at 5 g/L or more and those fully miscible with a solvent for dye solution were labeled as “⊙” with excellent dissolving property); dissolving property of isoamyl ether, in words (isoamyl ether (C5H11—O—C5H11)): slightly inferior dissolving property; dissolving property of octane, in words (octane with a carbon number of 8): poor dissolving property

Question: Which “dissolving property in Dibutyl ether” value does the source give for CCCCOc1ccc(-c2ccc(N(c3ccc(-c4ccc(C=C(C#N)C(=O)O)s4)cc3)c3ccc(-c4ccc(OCCCC)cc4OCCCC)cc3)cc2)c(OCCCC)c1 [D35] here?
Answer: The value was “◯ (those having solubility of 0.05 g/L or more but less than 5 g/L and those miscible with a solvent for dye solution were labeled as “∘” with good dissolving property)”.

Question: What about the “dissolving property in Diethyl ether” value of the same compound?
Answer: The value was “⊙ (those dissolved at 5 g/L or more and those fully miscible with a solvent for dye solution were labeled as “⊙” with excellent dissolving property)”.

Question: And the “dissolving property in Diisopropyl ether” value?
Answer: Its value is “⊙ (those dissolved at 5 g/L or more and those fully miscible with a solvent for dye solution were labeled as “⊙” with excellent dissolving property)”.

Question: What about the “dissolving property in Heptane” value of the same compound?
Answer: Its value is “Δ (those having the solubility of less than 0.05 g/L were labeled as “Δ” with fair dissolving property)”.

Question: And the “dissolving property in Hexane” value?
Answer: The value was “Δ (those having the solubility of less than 0.05 g/L were labeled as “Δ” with fair dissolving property)”.

Question: And the “dissolving property in Isoamyl ether” value?
Answer: Its value is “Δ (those having the solubility of less than 0.05 g/L were labeled as “Δ” with fair dissolving property)”.

Question: What about the “dissolving property in Methyl propyl ether” value of the same compound?
Answer: The value was “⊙ (those dissolved at 5 g/L or more and those fully miscible with a solvent for dye solution were labeled as “⊙” with excellent dissolving property)”.

Question: What about the “dissolving property in Octane” value of the same compound?
Answer: The value was “Δ (those having the solubility of less than 0.05 g/L were labeled as “Δ” with fair dissolving property)”.

Question: What about the “dissolving property in Pentane” value of the same compound?
Answer: Its value is “Δ (those having the solubility of less than 0.05 g/L were labeled as “Δ” with fair dissolving property)”.

Question: What about the “dissolving property in t-Butyl methyl ether” value of the same compound?
Answer: Its value is “⊙ (those dissolved at 5 g/L or more and those fully miscible with a solvent for dye solution were labeled as “⊙” with excellent dissolving property)”.

Question: With CC(C)(C)CCP(=O)(O)CCC(C)(C)C [DINHOP, bis-(3,3-dimethyl-butyl)-phosphinic acid] as the compound, how does the “dissolving property in Dibutyl ether” value read?
Answer: Its value is “⊙ (those dissolved at 5 g/L or more and those fully miscible with a solvent for dye solution were labeled as “⊙” with excellent dissolving property)”.

Question: And the “dissolving property in Diethyl ether” value?
Answer: The value was “⊙ (those dissolved at 5 g/L or more and those fully miscible with a solvent for dye solution were labeled as “⊙” with excellent dissolving property)”.

Question: What about the “dissolving property in Diisopropyl ether” value of the same compound?
Answer: The value was “⊙ (those dissolved at 5 g/L or more and those fully miscible with a solvent for dye solution were labeled as “⊙” with excellent dissolving property)”.

Question: What about the “dissolving property in Heptane” value of the same compound?
Answer: The value was “⊙ (those dissolved at 5 g/L or more and those fully miscible with a solvent for dye solution were labeled as “⊙” with excellent dissolving property)”.

Question: What about the “dissolving property in Hexane” value of the same compound?
Answer: Its value is “⊙ (those dissolved at 5 g/L or more and those fully miscible with a solvent for dye solution were labeled as “⊙” with excellent dissolving property)”.

Question: What about the “dissolving property in Isoamyl ether” value of the same compound?
Answer: Its value is “⊙ (those dissolved at 5 g/L or more and those fully miscible with a solvent for dye solution were labeled as “⊙” with excellent dissolving property)”.

Question: What about the “dissolving property in Methyl propyl ether” value of the same compound?
Answer: Its value is “⊙ (those dissolved at 5 g/L or more and those fully miscible with a solvent for dye solution were labeled as “⊙” with excellent dissolving property)”.

Question: What about the “dissolving property in Octane” value of the same compound?
Answer: Its value is “⊙ (those dissolved at 5 g/L or more and those fully miscible with a solvent for dye solution were labeled as “⊙” with excellent dissolving property)”.

Question: What about the “dissolving property in Pentane” value of the same compound?
Answer: Its value is “⊙ (those dissolved at 5 g/L or more and those fully miscible with a solvent for dye solution were labeled as “⊙” with excellent dissolving property)”.

Question: And the “dissolving property in t-Butyl methyl ether” value?
Answer: Its value is “⊙ (those dissolved at 5 g/L or more and those fully miscible with a solvent for dye solution were labeled as “⊙” with excellent dissolving property)”.

Question: What about the “dissolving property in Water” value of the same compound?
Answer: The value was “Δ (those having the solubility of less than 0.05 g/L were labeled as “Δ” with fair dissolving property)”.

Question: For CCO [Ethanol, ethanol], which “dissolving property in Dibutyl ether” value is on record?
Answer: The value was “⊙ (those dissolved at 5 g/L or more and those fully miscible with a solvent for dye solution were labeled as “⊙” with excellent dissolving property)”.

Question: What about the “dissolving property in Diethyl ether” value of the same compound?
Answer: Its value is “⊙ (those dissolved at 5 g/L or more and those fully miscible with a solvent for dye solution were labeled as “⊙” with excellent dissolving property)”.

Question: What about the “dissolving property in Diisopropyl ether” value of the same compound?
Answer: Its value is “⊙ (those dissolved at 5 g/L or more and those fully miscible with a solvent for dye solution were labeled as “⊙” with excellent dissolving property)”.

Question: And the “dissolving property in Heptane” value?
Answer: The value was “⊙ (those dissolved at 5 g/L or more and those fully miscible with a solvent for dye solution were labeled as “⊙” with excellent dissolving property)”.

Question: And the “dissolving property in Hexane” value?
Answer: Its value is “⊙ (those dissolved at 5 g/L or more and those fully miscible with a solvent for dye solution were labeled as “⊙” with excellent dissolving property)”.

Question: What about the “dissolving property in Isoamyl ether” value of the same compound?
Answer: The value was “⊙ (those dissolved at 5 g/L or more and those fully miscible with a solvent for dye solution were labeled as “⊙” with excellent dissolving property)”.

Question: What about the “dissolving property in Methyl propyl ether” value of the same compound?
Answer: Its value is “⊙ (those dissolved at 5 g/L or more and those fully miscible with a solvent for dye solution were labeled as “⊙” with excellent dissolving property)”.

Question: And the “dissolving property in Octane” value?
Answer: Its value is “⊙ (those dissolved at 5 g/L or more and those fully miscible with a solvent for dye solution were labeled as “⊙” with excellent dissolving property)”.

Question: What about the “dissolving property in Pentane” value of the same compound?
Answer: The value was “⊙ (those dissolved at 5 g/L or more and those fully miscible with a solvent for dye solution were labeled as “⊙” with excellent dissolving property)”.

Question: What about the “dissolving property in t-Butyl methyl ether” value of the same compound?
Answer: The value was “⊙ (those dissolved at 5 g/L or more and those fully miscible with a solvent for dye solution were labeled as “⊙” with excellent dissolving property)”.

Question: And the “dissolving property in Water” value?
Answer: The value was “⊙ (those dissolved at 5 g/L or more and those fully miscible with a solvent for dye solution were labeled as “⊙” with excellent dissolving property)”.
